Where a name gives a salt, the structure may show the parent alone.
What was measured:
Format in all cases: in vitro ADME
[1] = Metabolic stability in liver microsomes, Method II, mouse
Protocol: The in vitro metabolic stability assay was performed in a 96-deep-well plate with incubation at 37° C. 10 mM DMSO stock solution of the test compound was diluted 1:20 in acetonitrile, followed by an additional 1:10 dilution in 100 mM potassium phosphate buffer (KPi) to yield a final reaction concentration of 1 μM. […] 290 μL of cofactor solution (1.7 mM NADPH, 1.7 mM UDPGA, 3.4 mM MgCl in 100 mM KPi) was added to 200 μL of microsomal protein for a final volume of 490 μL. The reaction was initiated by adding 10 μL of the 50 μM test solution to 490 μL of microsomal protein for a final volume 500 μL enzyme-compound mixture.
UPLC mobile phase A: 0.25% formic acid in 5% methanol; mobile phase B: 0.25% formic acid in 95% water.
Each microsomal elimination rate, k, was based on a 4-point elimination curve tested in duplicates. LC-MS/MS raw data for a reaction plate was returned as integrated analyte peak areas for the test compound and internal standard used in the quench solution for the reaction to enable use of analyte:internal standard peak area ratios (PARs) for all data comparisons. […]
[formula] The intrinsic clearance value, CLint (expressed as μL/min/mg microsomal protein) calculation is shown below: […]

[2] = Metabolic stability in liver microsomes, Method II, human
Protocol: Determination of Metabolic Stability in Liver Microsomes—Method II
The in vitro metabolic stability assay was performed in a 96-deep-well plate with incubation at 37° C. 10 mM DMSO stock solution of the test compound was diluted 1:20 in acetonitrile, followed by an additional 1:10 dilution in 100 mM potassium phosphate buffer (KPi) to yield a final reaction concentration of 1 μM. Immediately prior to the start of the experiment, respective animal or human liver microsomes (male Sprague-dawley rat, male CD-1 mouse, or pooled human liver microsomes) were diluted in 100 mM KPi to 1.25 mg/mL liver microsomal protein. 290 μL of cofactor solution (1.7 mM NADPH, 1.7 mM UDPGA, 3.4 mM MgCl in 100 mM KPi) was added to 200 μL of microsomal protein for a final volume of 490 μL. The reaction was initiated by adding 10 μL of the 50 μM test solution to 490 μL of microsomal protein for a final volume 500 μL enzyme-compound mixture.
At 0, 5, 15 and 30 minute time points in the reaction, reaction aliquots (75 μL) were removed and the reactions were terminated by the addition of 50:50 acetonitrile/methanol solution (75 μL) containing a mass spectrometry internal standard (0.5 μM glyburide). The samples were centrifuged at 4000 RPM for 10 minutes. Supernatants (15 μL aliquots) were transferred to a new plate where each well contains 90 μL of deionized water. The supernatants solution were analyzed by UPLC/MS/MS for quantitation of parent remaining compound under multiple reactions monitoring mode (MRM) in positive mode. The percentage of compound remaining, relative to 0 minutes, was used to estimate in vitro elimination-rate constant (k) which was used to calculate in vitro metabolic clearance rates.
Analysis of the samples was performed on an ultra-performance liquid chromatography-tandem mass spectrometry (UPLC/MS/MS) system consisting of an AB Sciex Qtrap 5500 mass spectrometer, AB Sciex Turbo V ion source, Waters Acquity Sample Organizer, Waters Acquity Column manager, Waters Acquity Sample manager, and a Waters Acquity Binary Solvent Manager. Chromatographic separation of analyte and internal standard was achieved using a reverse phase C-18 column (50×2.1 mm, 1.7 μm, Acquity UPLC BEH C-18) with the following UPLC mobile phases and elution gradient: […]
UPLC mobile phase A: 0.25% formic acid in 5% methanol; mobile phase B: 0.25% formic acid in […].
LC gradient and flow rate are listed below: […]
The injection volume was 5 μL. Compounds were detected using Analyst 1.5.1 software which collects intensity data for all fragments related to the molecular weight of the test compound. After collection of the raw data, the software identifies and integrates the peak of the strongest intensity.
Each microsomal elimination rate, k, was based on a 4-point elimination curve tested in duplicates. LC-MS/MS raw data for a reaction plate was returned as integrated analyte peak areas for the test compound and internal standard used in the quench solution for the reaction to enable use of analyte:internal standard peak area ratios (PARs) for all data comparisons. The reaction time point (e.g. 0, 5, 15 and 30 minutes) was plotted versus the natural logarithm of percent test compound remaining relative to 0 minutes (based on relative PAR). The slope of this clearance plot, k, was used to calculate the in vitro half-life.
[formula] The intrinsic clearance value, CLint (expressed as μL/min/mg microsomal protein) calculation is shown below:
[formula] […]

[3] = Metabolic stability in liver microsomes, Method I, rat
Protocol: The in vitro metabolic stability assay was performed in a 96-well glass plate with shaking incubation at 37° C. A 10 mM DMSO stock solution of the test compound was sequentially diluted 1:1000 to yield a final reaction concentration of 1 μM in 50 mM KPi. […] 30 μL of the 10 μM solution containing the test compound was added to 120 μL of microsomal protein for 150 μL enzyme-compound mixture. The reaction was initiated by adding 150 μL of cofactor solution (2 mM NADPH, 4 mM MgCl in 50 mM KPi) to the enzyme-compound mixture, and the final reaction concentrations are listed in the table below.
At 0, 5, 10 and 30 minute time points in the reaction, reaction aliquots (50 μL) were removed and the reactions were terminated by the addition of acetonitrile (150 μL) containing a mass spectrometry internal standard (1 μM glyburide). The samples were centrifuged and the supernatants analyzed by LC-MS/MS for quantization of remaining compound. […]
Mobile phase A consisted of purified water containing 0.01% formic acid. […] Compounds were detected using the Thermo QuikQuan software which collects intensity data for all fragments related to the molecular weight of the test compound. […]

SMILES: C[C@H](Nc1nccc(N2C(=O)OC[C@@H]2[C@H](C)F)n1)c1ncc(-c2ccnc(C(F)(F)F)c2)cc1F [Example 463, (R)-3-(2-(((S)-1-(5-fluoro-2′-(trifluoromethyl)-[3,4′-bipyridin]-6-yl)ethyl)amino)pyrimidin-4-yl)-4-((S)-1-fluoroethyl)oxazolidin-2-one]
- Mouse microsomal stability CLint [1]: 35.45 µL/min/mg
- Human microsomal stability CLint [2]: 28.27 µL/min/mg

SMILES: C[C@H](Nc1nccc(N2C(=O)OCC2[C@H](C)F)n1)c1cn(-c2ccc(C(F)F)cc2)cn1 (stereo partly shown) [456 as TFA salt]
- Rat microsomal stability CLint [3]: 44.66 µL/min/mg
- Human microsomal stability CLint [2]: 16.79 µL/min/mg

SMILES: C[C@H](Nc1nccc(N2C(=O)OC[C@@H]2[C@H](C)F)n1)c1cn(-c2ccc(F)cc2)cn1 [Example 401, (R)-4-((S)-1-fluoroethyl)-3-(2-(((S)-1-(1-(4-fluorophenyl)-1H-imidazol-4-yl)ethyl)amino)pyrimidin-4-yl)oxazolidin-2-one]
- Mouse microsomal stability CLint [1]: 33.13 µL/min/mg
- Human microsomal stability CLint [2]: <7.70 µL/min/mg

SMILES: C[C@H](Nc1nccc(N2C(=O)OC[C@@H]2[C@@H](C)N)n1)c1cnc(-c2ccc(Cl)cc2)s1 [Example 380, (S)-4-((R)-1-aminoethyl)-3-(2-(((S)-1-(2-(4-chlorophenyl)thiazol-5-yl)ethyl)amino)pyrimidin-4-yl)oxazolidin-2-one]
- Mouse microsomal stability CLint [1]: 51.00 µL/min/mg
- Human microsomal stability CLint [2]: 31.15 µL/min/mg

SMILES: C[C@H](Nc1nccc(N2C(=O)OC[C@@H]2CF)n1)c1cn(-c2ccc(Cl)cc2)cn1 [Example 404, (R)-3-(2-(((S)-1-(1-(4-chlorophenyl)-1H-imidazol-4-yl)ethyl)amino)pyrimidin-4-yl)-4-(fluoromethyl)oxazolidin-2-one]
- Mouse microsomal stability CLint [1]: 18.72 µL/min/mg
- Human microsomal stability CLint [2]: <7.70 µL/min/mg

— patent US10112931B2, “3-pyrimidin-4-yl-oxazolidin-2-ones as inhibitors of mutant IDH” (NOVARTIS AG, priority 2013, dated 2018)
